Assays:
Format in all cases: in vivo
Oryza sativa (ORYSA) [1] = experiment: F. Post-emergence effect on useful plants, ORYSA; conditions: useful plant
Experimental: (§1) Seeds of monocotyledonous and dicotyledonous weeds and crop plants were placed in sandy loam in plastic or organic planting pots, covered with soil and cultivated in a greenhouse under controlled growth conditions. 2 to 3 weeks after sowing, the test plants were treated at the one-leaf stage. The compounds of the invention, formulated in the form of wettable powders (WP) or as emulsion concentrates (EC), were then sprayed onto the green parts of the plants as aqueous suspension or emulsion with addition of 0.5% additive at a water application rate of 600 l/ha (converted). After the test plants had been kept in the greenhouse under optimum growth conditions for about 3 weeks, the activity of the preparations was rated visually in comparison to untreated controls.
(§2) For example, • 100% efficacy=plants have died, • 0% action=like untreated control plants.
Tables F1a to F4 below show the effects of selected compounds of the general formula (I) according to table 1 on various useful plants at an application rate corresponding to 320 g/ha or less, which were obtained by the experimental procedure mentioned above.

[2] = system: Alopecurus myosuroides (ALOMY); experiment: B. Herbicidal post-emergence efficacy, ALOMY; conditions: rated visually after about 3 weeks
Experimental: (§3) Seeds of mono- and dicotyledonous weed plants were placed in plastic pots in sandy loam soil (doubly sown with in each case one species of mono- or dicotyledonous weed plants per pot), covered with soil and cultivated in a greenhouse under controlled growth conditions. 2 to 3 weeks after sowing, the test plants were treated at the one-leaf stage. The compounds of the invention, formulated in the form of wettable powders (WP) or as emulsion concentrates (EC), were applied onto the green parts of the plants as aqueous suspension or emulsion with addition of 0.5% additive at a water application rate of 600 liters per hectare (converted). After the test plants had been kept in the greenhouse under optimum growth conditions for about 3 weeks, the activity of the preparations was rated visually in comparison to untreated controls.
(§4) For example, • 100% efficacy=plants have died, • 0% efficacy=like untreated control plants
(§5) Tables B1a to B12c below show the effects of selected inventive compounds of the general formula (I) according to table 1 on various harmful plants at an application rate corresponding to 1280 g/ha or less, which were obtained by the experimental procedure mentioned above.

[3] = system: Matricaria inodora (MATIN); experiment: C. Herbicidal pre-emergence efficacy, MATIN; conditions: scored after about 3 weeks
Text: (§6) Seeds of monocotyledonous and dicotyledonous weed plants and crop plants were placed in plastic or organic planting pots and covered with soil. The compounds of the invention, formulated in the form of wettable powders (WP) or as emulsion concentrates (EC), were then applied to the surface of the covering soil as aqueous suspension or emulsion with addition of 0.5% additive at a water application rate equivalent to 600 l/ha (converted). After the treatment, the pots were placed in a greenhouse and kept under good growth conditions for the test plants. After about 3 weeks, the efficacy of the preparations was scored visually in comparison with untreated controls as percentages. For example, • 100% efficacy=plants have died, • 0% efficacy=like untreated control plants.
Tables C1a to C14b below show the effects of selected compounds of the general formula (I) according to table 1 on various harmful plants at an application rate corresponding to 320 g/ha or less, which were obtained by the experimental procedure mentioned above.

Oryza sativa (ORYSA) [4] = experiment: D. Pre-emergence effect on useful plants, ORYSA; conditions: useful plant, application rate 80 g/ha
Text: as §6
Tables D1a to D5b below show the effects of selected compounds of the general formula (I) according to table 1 on various useful plants at an application rate corresponding to 320 g/ha or less, which were obtained by the experimental procedure mentioned above.

[5] = system: Matricaria inodora (MATIN); experiment: B. Herbicidal post-emergence efficacy, MATIN
Experimental: as §3, §4, §5

Lolium rigidum (LOLRI) = experiment: E. Herbicidal post-emergence efficacy, LOLRI
Experimental: as §1, §2
Tables E1a to E12b below show the effects of selected compounds of the general formula (I) according to table 1 on various harmful plants at an application rate corresponding to 320 g/ha or less, which were obtained by the experimental procedure mentioned above.

Glycine max (GLXMA) = experiment: D. Pre-emergence effect on useful plants, GLXMA; conditions: useful plant
Procedure, shortened: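 Seeds sown in pots and covered with soil; WP or EC formulations sprayed on the soil surface as aqueous suspension/emulsion with 0.5% additive at 600 l/ha water. Plants grown in greenhouse; crop damage scored visually after about 3 weeks as % versus untreated controls (100% = dead, 0% = like control).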

SMILES	Post-emergence efficacy against ALOMY in % ([2]; 1280 g/ha) [%]	Pre-emergence efficacy against MATIN ([3]; 320 g/ha) [%]	Post-emergence efficacy against LOLRI in % (Lolium rigidum (LOLRI); application rate 320 g/ha) [%]	also measured
O=S(=O)(CCCCl)Oc1ccccc1Oc1ncc(Cl)cn1 [Example I-2]	90	100	–	Post-emergence efficacy against ORYSA in % (Oryza sativa (ORYSA) [1]; application rate 80 g/ha): 0%; Post-emergence efficacy against ALOMY in % ([2]; 320 g/ha): 90%
CCCS(=O)(=O)Oc1ccccc1Oc1ncc(Cl)cn1 [Example I-3]	90	90	–	Post-emergence efficacy against ORYSA in % (Oryza sativa (ORYSA) [1]; application rate 80 g/ha): 10%; Pre-emergence efficacy against ORYSA in % (Oryza sativa (ORYSA) [4]): 20%
O=S(=O)(CCCCl)Oc1ccccc1Oc1ncc(F)cn1 [Example I-5]	100	90	90	Post-emergence efficacy against ORYSA in % (Oryza sativa (ORYSA) [1]; application rate 80 g/ha): 20%; Post-emergence efficacy against MATIN ([5]; 1280 g/ha): 90%
O=S(=O)(CCC(F)(F)F)Oc1ccccc1Oc1ncc(Cl)cn1 [Example I-8]	–	80	80	Post-emergence efficacy against ORYSA in % (Oryza sativa (ORYSA) [1]; application rate 80 g/ha): 20%; Pre-emergence efficacy against MATIN ([3]; 80 g/ha): 80%
O=S(=O)(CCl)Oc1ccccc1Oc1ncc(Cl)cn1 [Example I-9]	–	80	–	Post-emergence efficacy against ORYSA in % (Oryza sativa (ORYSA) [1]; application rate 80 g/ha): 10%; Post-emergence efficacy against ORYSA in % (Oryza sativa (ORYSA) [1]; application rate 320 g/ha): 10%; Pre-emergence efficacy against ORYSA in % (Oryza sativa (ORYSA) [4]): 0%
O=S(=O)(CCCC(F)(F)F)Oc1ccccc1Oc1ncc(Cl)cn1 [Example I-10]	–	100	90	Pre-emergence efficacy against MATIN ([3]; 80 g/ha): 90%
O=S(=O)(CCCCl)Oc1c(F)cccc1Oc1ncc(Cl)cn1 [Example I-14]	100	–	–	Post-emergence efficacy against ALOMY in % ([2]; 320 g/ha): 100%
O=S(=O)(CCCCCl)Oc1ccccc1Oc1ncc(Cl)cn1 [Example I-15]	–	–	–	Post-emergence efficacy against ORYSA in % (Oryza sativa (ORYSA) [1]; application rate 80 g/ha): 0%; Post-emergence efficacy against ORYSA in % (Oryza sativa (ORYSA) [1]; application rate 320 g/ha): 20%
CCS(=O)(=O)Oc1ccccc1Oc1ncc(Cl)cn1 [Example I-16]	90	–	–	–
O=S(=O)(CC1CC1)Oc1ccccc1Oc1ncc(Cl)cn1 [Example I-23]	90	100	–	Post-emergence efficacy against ORYSA in % (Oryza sativa (ORYSA) [1]; application rate 80 g/ha): 0%; Post-emergence efficacy against ALOMY in % ([2]; 320 g/ha): 90%
CC(C)CCS(=O)(=O)Oc1ccccc1Oc1ncc(Cl)cn1 [Example I-25]	–	–	–	Post-emergence efficacy against ORYSA in % (Oryza sativa (ORYSA) [1]; application rate 80 g/ha): 0%; Pre-emergence efficacy against ORYSA in % (Oryza sativa (ORYSA) [4]): 0%; Pre-emergence efficacy against GLXMA in % (Glycine max (GLXMA); application rate 80 g/ha): 0%
O=S(=O)(CCC(F)(F)F)Oc1c(Cl)cccc1Oc1ncc(Br)cn1 [Example I-32]	90	80	–	Pre-emergence efficacy against GLXMA in % (Glycine max (GLXMA); application rate 80 g/ha): 0%; Pre-emergence efficacy against GLXMA in % (Glycine max (GLXMA); application rate 320 g/ha): 0%
O=S(=O)(CCCC(F)(F)F)Oc1c(Cl)cccc1Oc1ncc(Br)cn1 [Example I-34]	–	–	–	Pre-emergence efficacy against GLXMA in % (Glycine max (GLXMA); application rate 80 g/ha): 0%
C=CCS(=O)(=O)Oc1ccccc1Oc1ncc(Cl)cn1 [Example I-36]	–	–	–	Pre-emergence efficacy against GLXMA in % (Glycine max (GLXMA); application rate 80 g/ha): 0%
O=S(=O)(CCC(F)(F)F)Oc1c(Cl)cccc1Oc1ncc(Cl)cn1 [Example I-38]	–	80	–	Pre-emergence efficacy against MATIN ([3]; 80 g/ha): 80%
O=S(=O)(CCCC(F)(F)F)Oc1c(Cl)cccc1Oc1ncc(Cl)cn1 [Example I-39]	–	80	–	–
O=S(=O)(CCC(F)(F)F)Oc1c(F)cccc1Oc1ncc(Br)cn1 [Example I-40]	–	80	–	–

SMILES	Post-emergence efficacy against ALOMY in % ([2]; 1280 g/ha) [%]	Pre-emergence efficacy against MATIN ([3]; 320 g/ha) [%]	Post-emergence efficacy against LOLRI in % (Lolium rigidum (LOLRI); application rate 320 g/ha) [%]	also measured
O=S(=O)(CCCC(F)(F)F)Oc1c(F)cccc1Oc1ncc(Br)cn1 [Example I-41]	90	–	–	–
O=S(=O)(CCCC(F)(F)F)Oc1c(F)cccc1Oc1ncc(F)cn1 [Example I-42]	100	100	100	Post-emergence efficacy against ALOMY in % ([2]; 320 g/ha): 100%; Post-emergence efficacy against LOLRI in % (Lolium rigidum (LOLRI); application rate 80 g/ha): 80%; Pre-emergence efficacy against MATIN ([3]; 80 g/ha): 90%
O=S(=O)(CCC(F)(F)F)Oc1c(Br)cccc1Oc1ncc(F)cn1 [Example I-43]	–	80	–	–
Cc1cccc(Oc2ncc(F)cn2)c1OS(=O)(=O)CCC(F)(F)F [Example I-45]	90	–	–	–
Cc1cccc(Oc2ncc(F)cn2)c1OS(=O)(=O)CCCC(F)(F)F [Example I-46]	90	–	–	–
O=S(=O)(CCC(F)(F)F)Oc1c(F)cccc1Oc1ncc(F)cn1 [Example I-47]	100	100	100	Post-emergence efficacy against ALOMY in % ([2]; 320 g/ha): 90%; Pre-emergence efficacy against MATIN ([3]; 80 g/ha): 90%
O=S(=O)(CCC(F)(F)F)Oc1c(F)cccc1Oc1ncc(Cl)cn1 [Example I-48]	90	100	90	Pre-emergence efficacy against MATIN ([3]; 80 g/ha): 100%
O=S(=O)(CCCC(F)(F)F)Oc1c(F)cccc1Oc1ncc(Cl)cn1 [Example I-49]	90	100	80	Pre-emergence efficacy against MATIN ([3]; 80 g/ha): 80%
C=CCCS(=O)(=O)Oc1c(F)cccc1Oc1ncc(Cl)cn1 [Example I-50]	–	–	–	Post-emergence efficacy against MATIN ([5]; 1280 g/ha): 90%
O=S(=O)(CC1CC(F)(F)C1)Oc1c(F)cccc1Oc1ncc(Cl)cn1 [Example I-53]	90	90	100	Post-emergence efficacy against ALOMY in % ([2]; 320 g/ha): 90%; Post-emergence efficacy against LOLRI in % (Lolium rigidum (LOLRI); application rate 80 g/ha): 80%
O=S(=O)(CCC1CC1)Oc1c(F)cccc1Oc1ncc(Cl)cn1 [Example I-55]	90	–	80	Pre-emergence efficacy against GLXMA in % (Glycine max (GLXMA); application rate 80 g/ha): 10%
O=S(=O)(CCCC(F)F)Oc1c(F)cccc1Oc1ncc(Cl)cn1 [Example I-56]	–	–	–	Post-emergence efficacy against MATIN ([5]; 320 g/ha): 90%; Post-emergence efficacy against MATIN ([5]; 1280 g/ha): 90%
O=S(=O)(CCCC(F)(F)C(F)(F)F)Oc1c(F)cccc1Oc1ncc(Cl)cn1 [Example I-68]	–	100	–	Pre-emergence efficacy against MATIN ([3]; 80 g/ha): 90%; Pre-emergence efficacy against GLXMA in % (Glycine max (GLXMA); application rate 80 g/ha): 10%
O=S(=O)(CCC(F)=C(F)F)Oc1c(Cl)cccc1Oc1ncc(Cl)cn1 [Example I-73]	90	–	–	–
Cc1cccc(Oc2ncc(Cl)cn2)c1OS(=O)(=O)CC1CC(F)(F)C1 [Example I-74]	90	–	–	–
N#Cc1cccc(Oc2ncc(Cl)cn2)c1OS(=O)(=O)CCCC(F)(F)F [Example I-81]	–	–	80	Pre-emergence efficacy against GLXMA in % (Glycine max (GLXMA); application rate 80 g/ha): 0%
